The values that follow come from ChEMBL document CHEMBL2073746, “Inhibitory effect of the reversal agents V-104, GF120918 and Pluronic L61 on MDR1 Pgp-, MRP1- and MRP2-mediated transport” (Br J Cancer, 2000).

Type in all cases: functional, cell-based
Data set [1] has as its target T1, ATP-dependent translocase ABCB1 (Homo sapiens, UniProt P08183). Nature of the data set: TP_TRANSPORTER: inhibition of Daunorubicin transepithelial transport (basal to apical)(Daunorubicin: 2 uM, V-104: 15 uM) in MDR1-expressing MDCKII cells. Particulars: dog, mdck-ii.
In data set [2] the target is T1, ATP-dependent translocase ABCB1. The data set is described as follows: TP_TRANSPORTER: inhibition of Vinblastine transepithelial transport (basal to apical) (Vinblastine: 2 uM, Pluronic L61: 0.04%) in MDR1-expressing LLC-PK1 cells. Particulars: pig.
The target of data set [3] is ATP-binding cassette sub-family C member 2 (Homo sapiens, UniProt Q92887). The data set is described as follows: TP_TRANSPORTER: inhibition of Vinblastine transepithelial transport (basal to apical)(Vinblastine: 2 uM, Pluronic L61: 0.1%) in MRP2-expressing MDCKII cells. Particulars: dog, mdck-ii.
ATP-binding cassette sub-family C member 2, sequence (Q92887 whole entry): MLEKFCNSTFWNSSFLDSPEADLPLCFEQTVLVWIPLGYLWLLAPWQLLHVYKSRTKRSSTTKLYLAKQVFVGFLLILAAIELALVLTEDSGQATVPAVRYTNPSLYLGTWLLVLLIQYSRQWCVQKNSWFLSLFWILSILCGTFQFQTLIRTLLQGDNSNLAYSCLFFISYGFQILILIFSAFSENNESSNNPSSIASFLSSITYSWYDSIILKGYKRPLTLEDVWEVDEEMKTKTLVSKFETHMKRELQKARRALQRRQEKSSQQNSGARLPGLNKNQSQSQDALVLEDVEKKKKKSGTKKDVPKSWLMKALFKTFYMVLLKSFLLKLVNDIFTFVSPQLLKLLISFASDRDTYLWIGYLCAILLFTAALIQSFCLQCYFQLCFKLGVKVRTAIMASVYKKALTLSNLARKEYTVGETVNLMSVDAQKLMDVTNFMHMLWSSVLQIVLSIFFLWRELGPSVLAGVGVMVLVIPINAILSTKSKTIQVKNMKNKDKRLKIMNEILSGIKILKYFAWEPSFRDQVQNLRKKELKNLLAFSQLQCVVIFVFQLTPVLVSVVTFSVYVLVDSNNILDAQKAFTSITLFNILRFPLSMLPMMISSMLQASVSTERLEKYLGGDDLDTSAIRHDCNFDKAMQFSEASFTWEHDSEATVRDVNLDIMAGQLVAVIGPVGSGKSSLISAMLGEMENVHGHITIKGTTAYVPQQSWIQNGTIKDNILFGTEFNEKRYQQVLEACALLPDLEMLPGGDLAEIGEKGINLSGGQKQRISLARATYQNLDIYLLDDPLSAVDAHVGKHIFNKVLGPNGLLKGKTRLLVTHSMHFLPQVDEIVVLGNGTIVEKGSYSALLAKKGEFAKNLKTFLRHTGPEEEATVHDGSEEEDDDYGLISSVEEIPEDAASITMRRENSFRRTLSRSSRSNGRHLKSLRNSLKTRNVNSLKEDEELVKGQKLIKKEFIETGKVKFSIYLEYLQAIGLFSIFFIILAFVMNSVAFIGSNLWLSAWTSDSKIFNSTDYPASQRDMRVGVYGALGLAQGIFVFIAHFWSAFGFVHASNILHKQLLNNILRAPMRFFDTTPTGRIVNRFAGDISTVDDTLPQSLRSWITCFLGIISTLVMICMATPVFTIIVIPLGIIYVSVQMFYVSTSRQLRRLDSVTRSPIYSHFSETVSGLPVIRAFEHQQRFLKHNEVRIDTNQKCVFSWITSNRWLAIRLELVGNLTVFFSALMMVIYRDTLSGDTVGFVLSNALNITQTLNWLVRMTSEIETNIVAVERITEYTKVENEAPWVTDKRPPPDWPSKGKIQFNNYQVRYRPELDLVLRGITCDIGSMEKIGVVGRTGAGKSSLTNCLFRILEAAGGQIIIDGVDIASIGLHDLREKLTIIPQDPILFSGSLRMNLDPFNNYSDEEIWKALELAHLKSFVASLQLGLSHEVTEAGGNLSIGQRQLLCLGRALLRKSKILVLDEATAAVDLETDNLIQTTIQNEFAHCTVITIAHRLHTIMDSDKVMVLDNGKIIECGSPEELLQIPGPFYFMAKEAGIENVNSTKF

T1 sequence (P08183 whole entry): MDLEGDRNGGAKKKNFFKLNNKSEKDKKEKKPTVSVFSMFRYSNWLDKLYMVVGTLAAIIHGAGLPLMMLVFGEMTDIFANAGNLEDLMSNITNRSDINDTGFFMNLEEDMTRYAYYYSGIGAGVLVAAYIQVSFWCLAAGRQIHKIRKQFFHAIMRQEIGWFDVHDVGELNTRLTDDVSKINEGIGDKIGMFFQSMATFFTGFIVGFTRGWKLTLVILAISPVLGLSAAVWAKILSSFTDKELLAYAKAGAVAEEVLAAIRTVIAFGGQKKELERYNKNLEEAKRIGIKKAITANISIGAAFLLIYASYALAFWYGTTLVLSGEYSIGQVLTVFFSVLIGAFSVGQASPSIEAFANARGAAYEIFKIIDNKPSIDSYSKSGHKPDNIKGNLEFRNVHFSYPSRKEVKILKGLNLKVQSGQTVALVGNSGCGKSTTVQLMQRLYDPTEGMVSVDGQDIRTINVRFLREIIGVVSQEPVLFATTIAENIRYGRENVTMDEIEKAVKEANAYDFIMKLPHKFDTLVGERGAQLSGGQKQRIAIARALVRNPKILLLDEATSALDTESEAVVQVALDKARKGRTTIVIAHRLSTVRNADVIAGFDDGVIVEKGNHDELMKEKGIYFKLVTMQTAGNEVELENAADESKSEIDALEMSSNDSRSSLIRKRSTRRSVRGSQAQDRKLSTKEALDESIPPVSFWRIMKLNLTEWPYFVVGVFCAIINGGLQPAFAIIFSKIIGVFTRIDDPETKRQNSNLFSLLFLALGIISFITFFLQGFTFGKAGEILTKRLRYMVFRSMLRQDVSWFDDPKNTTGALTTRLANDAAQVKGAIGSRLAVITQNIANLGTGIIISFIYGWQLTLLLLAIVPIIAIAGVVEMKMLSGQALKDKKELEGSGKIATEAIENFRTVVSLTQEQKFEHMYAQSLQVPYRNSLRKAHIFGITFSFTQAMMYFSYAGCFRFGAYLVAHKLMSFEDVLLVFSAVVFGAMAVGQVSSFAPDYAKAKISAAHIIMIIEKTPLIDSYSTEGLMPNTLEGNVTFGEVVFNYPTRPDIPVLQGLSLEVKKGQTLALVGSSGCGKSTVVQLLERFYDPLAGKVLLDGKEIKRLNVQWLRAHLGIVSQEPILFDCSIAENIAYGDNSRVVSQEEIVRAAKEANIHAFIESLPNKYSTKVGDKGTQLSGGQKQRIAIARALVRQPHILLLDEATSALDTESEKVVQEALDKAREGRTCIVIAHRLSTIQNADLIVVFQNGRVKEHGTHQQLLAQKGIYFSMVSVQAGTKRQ

`COc1cc(C(=O)C(=O)N2CCCC[C@H]2C(=O)O)cc(OC)c1OC`: the Activity result in data set [1] is “inhibitor [+]”.
For PLURONIC L61, the Activity result in data set [2] and in data set [3] was “inhibitor [+]” throughout.
